Measured values taken from paper PMC11788822, “Uncovering the potent antimicrobial activity of squaramide based anionophores – chloride transport and membrane disruption” (Chemical Science, 2025).
pIC50: −log10 of the molar value. Where “and” joins values, the source holds several entries; their conditions need not be identical. Equal entries are not always repeated.

Legend:
[1] = Lucigenin Cl−/NO3− exchange assay in LUVs; conditions: Cl− transport, 0.4 mM POPC/cholesterol 7:3 LUVs, Hill fit at 270 s
Method: Given our objective was to use such transport behaviour as a method to disrupt anion homeostasis in bacteria, we also conducted anion transport assays in Large Unilamellar Liposomes (LUVs) using the well-established Lucigenin-based Cl^−/NO3^− exchange assay.[40] Briefly, LUVs containing the chloride sensitive dye lucigenin in a NaNO3 solution were prepared and a NaCl pulse was added to create a chloride concentration gradient. Upon addition of the putative transporter, the quenching of the fluorescence of lucigenin was monitored over time to assess Cl^− influx.
Lucigenin Cl-/NO3- anion exchange assay
LUV preparation and Lucigenin assays were carried out following procedures outlined by Valkenier and co-workers.8 Large unilamellar liposomes (LUVs) were synthesized using 1-palmitoyl-2-oleoyl-sn-glycero-3-phosphocholine (POPC)(11.2 µmol, soln. in CHCl3) and Cholesterol (4.8 µmol) mixed in a ratio of 7:3. This mixture was brought to dryness under gentle vacuum and subsequently, the mixture was rehydrated in an aqueous Lucigenin solution (1 mL, 0.8mM lucigenin in 225 mM NaNO3) and stirred for 1 h to obtain heterogeneous vesicles. After that, the vesicles underwent 9 freeze-thaw cycles and were extruded through a […] polycarbonate membrane 29 times to obtain monodisperse LUVs. A Sephadex G-100 size-exclusion column was employed to remove any unencapsulated lucigenin. The collected liposomes were diluted to 40 mL with 225 mM NaNO3 to obtain a homogeneous 0.4 mM liposome solution. Lucigenin fluorescence quenching was monitored in a time dependent manner using an Agilent Spectrofluorimeter to access Cl- influx (λ ex = 430 nm, λem = 505 nm).
Cl- transport behaviour was initiated at t=0 s by adding each compound as a solvate in DMSO followed by a 25 mM NaCl pulse (75µL, 1 M NaCl in […] NaNO3) to a 3 mL liposome solution. The data was collected for at least 600 s and then Triton X-100 (5% w/w in water) was added to lyse the liposomes, and normalize to 100% efflux. The recorded data was normalised and the fraction fluorescence intensity at 270 s of each tested concentration of transporters (mol%) was plotted against transporter concentration (mol%). The data obtained was fitted to the Hill equation to obtain the EC50 value at 270 s (the concentration to obtain the half maximum effect) by using Originlab 2024b or Graphpad Prism 10:
y = START + (END ‒ START) ∗ xn/(kn + xn)
Where n is the Hill coefficient, k presents the EC 50 value.

S. aureus = assay: Growth inhibition assay, S. aureus; type: cell-based, Staphylococcus aureus; conditions: 24 h, growth (OD 600 nm) relative to control, 37 °C; for IC80 / pIC50: Staphylococcus aureus
Method: (§1) To determine IC50/80 values, growth (optical density) of S. aureus, methicillin-resistant S. aureus (MRSA), P. aeruginosa, and K. pneumoniae when treated with a range of concentrations of each active compound in vitro was measured at 600 nm after a 24 h incubation period at 37 °C. Each compound was studied for activity below […], and those showing little activity above 200 μM, were noted as such, and omitted from further study.
Staphylococcus aureus culture conditions
S. aureus (ATCC33951) was cultured at 37 °C in Nutrient broth (Oxoid), in an orbital shaker at 200 rpm. Stocks were kept on nutrient agar, stored at 4 °C for up to 2 months, or as glycerol stocks (50/50 glycerol:culture), stored at -70 °C indefinitely. […]
(§2) Bacterial cultures were brought to early stationary phase overnight, in nutrient broth (containing 25/50 µg/mL Ampicillin for MRSA/K. pneumoniae, respectively) at 37 °C. Cultures were diluted to an OD600 = 0.01. Aliquots of Culture (100 µl) were added to 100 µL serially diluted compound (200 – 0.78 µM) in nutrient broth in a 96-well plate (Sarstedt, Germany).
(§3) Plates were incubated at 37 °C for 24 h and growth was measured at 600 nm, where growth was measured and represented relative to control. […]

[2] = system: methicillin-resistant S. aureus (MRSA); assay: Growth inhibition assay, MRSA; type: cell-based, Staphylococcus aureus; conditions: 24 h; for pIC50 / IC80: Staphylococcus aureus, MRSA; for pIC50: read-out: MRSA IC50, growth (OD 600 nm) relative to control, 24 h, 37 °C; for IC80: read-out: MRSA IC80, growth (OD 600 nm) relative to control, 24 h, 37 °C; for MRSA IC50: growth (OD 600 nm) relative to control, 37 °C
Method: as §1
Staphylococcus aureus culture conditions […]
Methicillin-resistant Staphylococcus aureus culture conditions
Methicillin-resistant S. aureus (clinical isolate – St. James’ University Hospital, Dublin) was cultured at 37 °C in Nutrient broth (Oxoid), containing 25 µg/mL Ampicillin in an orbital shaker at 200 rpm. Stocks were kept on nutrient agar containing 25 µg/mL Ampicillin, stored at 4 °C for up to 2 months, or as glycerol stocks (50/50 glycerol:culture), stored at -70 °C indefinitely. […]
as §2, §3

[3] = 1H NMR titration with TBACl, Cl− binding; conditions: association constant towards Cl−, compound 2.5 mM, 95% DMSO-d6, 1:1 binding model (Bindfit), errors below 10%
Method: To verify if 1–6 formed host–guest complexes with Cl^− in solution, ^1H NMR titrations of each compound (2.5 mM) with TBACl were carried out in DMSO-d6. Increasing equivalents of Cl^− were incrementally added, with spectral information obtained upon addition of each molar equivalent of Cl^−. […] Taking 1 as an example (Fig. 2), upon addition of sequential aliquots of Cl^− there is a clear downfield shift of both squaramide NHs, with minor contributions to the binding cleft derived from the ortho-aryl protons of the aniline of 1. The binding data from each titration was fitted to a 1 : 1 binding model using the Bindfit[36] open access software, and the results are tabulated below (Table 1), alongside the respective Hammett constant for the relevant substitution pattern.[37] […] This aligns with previously reported receptors,[38] where compounds containing CF3 substituents in particular are known to have increased anion binding affinity as well as transport ability.[39]

[4] = parameters: method as in doi:10.1021/jo01097a026; conditions: for the relevant substitution pattern; cited from earlier work
[5] = system: panel of Gram-positive and -negative pathogens; assay: Zone of inhibition assay; type: cell-based; conditions: 5 μL of 1 mM stock on nutrient agar, 37 °C, 24 h; radius ≤ 2 mm deemed not active
Method: To do this, a zone of inhibition assay was used as a qualitative measure of activity. To do so, 5 μL of a 1 mM stock of the respective compound was pipetted atop nutrient agar which was previously spread with a panel of Gram-positive and -negative pathogens of interest. Following incubation at 37 °C for 24 h, zones of inhibition were measured and recorded for each compound. Zones with a radius ≤ 2 mm were deemed as not active, and thus eliminated from further study.

O=c1c(Nc2ccc(Cl)cc2)c(NC23CC4CC(CC(C4)C2)C3)c1=O [Compound 3]
EC50 (mol%) [1]: 0.2597 mol% and 0.260 mol%
IC80 (S. aureus): > 200 µM
pIC50 (S. aureus): < 3.70
S. aureus IC50 (S. aureus): lay outside the concentration range tested
pIC50 [2]: < 3.70
IC80 [2]: > 200 µM
MRSA IC50 [2]: lay outside the concentration range tested
K a [3]: 207 M⁻¹
Hammett parameter (σ) [4]: 0.23
zone of inhibition, qualitative measure of activity [5]: promising bioactivity

O=c1c(Nc2ccccc2Cl)c(NC23CC4CC(CC(C4)C2)C3)c1=O [Compound 5]
EC50 (mol%) [1]: 1.349 mol%
IC80 (S. aureus): > 200 µM
pIC50 (S. aureus): < 3.70
S. aureus IC50 (S. aureus): lay outside the concentration range tested
pIC50 [2]: < 3.70
IC80 [2]: > 200 µM
MRSA IC50 [2]: lay outside the concentration range tested
K a [3]: 44 M⁻¹
zone of inhibition, qualitative measure of activity [5]: promising bioactivity

O=c1c(Nc2ccccc2)c(NC23CC4CC(CC(C4)C2)C3)c1=O [Compound 6]
IC80 (S. aureus): > 200 µM
pIC50 (S. aureus): < 3.70
S. aureus IC50 (S. aureus): lay outside the concentration range tested
pIC50 [2]: < 3.70
IC80 [2]: > 200 µM
MRSA IC50 [2]: lay outside the concentration range tested
K a [3]: 138 M⁻¹
Hammett parameter (σ) [4]: 0.0
